In patent US11753447B2, “Cyclic peptides, methods of synthesis, and methods of treatment” (priority 2020, dated 2023):
Numbered stars: 1 amine (or outer) side, 2 acyl side, 3 side chain; on linkers, the order of the positions; unused ones are H or OH. Square brackets hold non-standard residues; d marks the D form. Peptide text beside a SMILES is read from it. X1 = O=C(Cc1ccc(CCN[*:1])cc1)[*:2]

Assays:
SARS-CoV-2 = settings: cell-based studies; cited from earlier work
HEK-293 cells = settings: 72 hours
SARS-CoV-2 M^pro [1] = target: T1, SARS-CoV-2 M^pro (Severe acute respiratory syndrome coronavirus 2, UniProt P0DTD1); test: LC/MS analysis of enzyme inhibition assay well solution for cleavage of UCI-1 by M^pro; assay type: biochemical; settings: 187.5 μM UCI-1 well solution after 4 hours, compared with peptide-1c spike
T1 construct: purchased Life Sensors

SARS-CoV-2 M^pro [2] = target: T1, SARS-CoV-2 M^pro; test: biochemical; settings: 0.1 μM M^pro, 50 μM fluorogenic substrate, 30 min pre-incubation, 37° C., non-linear regression of initial rates; read-out: IC50 against M^pro

Row | Structure (SMILES) | SARS-CoV-2 replication (SARS-CoV-2) | other results
1 | Cc1cc(C(=O)NC(C)C(=O)NC(C(=O)NC(CC(C)C)C(=O)NC(C=CC(=O)OCc2ccccc2)CC2CCNC2=O)C(C)C)no1 (centres unmarked) [N3] | block SARS-CoV-2 replication | 
2 | CC(C)(C)OC(=O)Nc1cccn([C@@H](CC2CC2)C(=O)N[C@@H](C[C@@H]2CCNC2=O)C(=O)C(=O)NCc2ccccc2)c1=O [13b] | block SARS-CoV-2 replication | 
3 | O=C[C@H](C[C@@H]1CCNC1=O)NC(=O)[C@H](CC1CCCCC1)NC(=O)c1cc2ccccc2[nH]1 [11a] | block SARS-CoV-2 replication | 
4 | NCCCC[C@@H]1NC(=O)[C@H](CO)NC(=O)[C@H](CCC(N)=O)NC(=O)[C@H](Cc2ccccc2)NC(=O)Cc2ccc(cc2)CCNC1=O [UCI-1] (cyclo(FQSK[X1])) |  | cytotoxicity (HEK-293 cells; concentrations up to 256 μM, HEK-293): not cytotoxic; LDH release from HEK-293 cells (HEK-293 cells; highest concentration evaluated (256 μM)): little or no LDH release; cleavage by M^pro (SARS-CoV-2 M^pro [1]): not appreciably cleaved; IC50 (SARS-CoV-2 M^pro [2]): ~160 µM
5 | O=C[C@H](C[C@@H]1CCNC1=O)NC(=O)[C@H](Cc1cccc(F)c1)NC(=O)c1cc2ccccc2[nH]1 [11b] | block SARS-CoV-2 replication | 
